Patent US5220050A, “Peptide mimetic compounds useful as platelet aggregation inhibitors” (G. D. Searle & Co., priority 1991, dated 1993)
pIC50: −log10 of the molar value. Where a name gives a salt, the structure may show the parent alone.

These molecules were tested on Platelet Aggregation in Dog PRP (assay: In-Vitro Platelet Aggregation in PRP (ADP induced)). Settings: Canis lupus familiaris, Platelet, in-vitro.
Format: cell-based
Method: Healthy male or female dogs were fasted for 8 hours prior to drawing blood; then 30 ml whole blood was collected using a butterfly needle and 30 cc plastic syringe with 3 ml of 0.129 M buffered sodium citrate (3.8%). The syringe was rotated carefully as blood was drawn to mix the citrate. Platelet-rich plasma (PRP) was prepared by centrifugation at 975×g for 3.17 minutes at room temperature, allowing the centrifuge to coast to a stop without braking. The PRP was removed from the blood with a plastic pipette and placed in a plastic capped, 50 ml Corning conical sterile centrifuge tube which was held at room temperature. Platelet poor plasma (PPP) was prepared by centrifuging the remaining blood at 2000×g for 15 minutes at room temperature allowing the centrifuge to coast to a stop without braking. The PRP was adjusted with PPP to a count of 2-3×10^8 platelets per ml. 400 μl of the PRP preparation and 50 μl of the compound to be tested or saline were preincubated for 1 minute at 37° C. in a BioData aggregometer (BioData, Horsham, Pa.). 50 μl of adenosine 5'diphosphate (ADP) (50 μm final concentration) was added to the cuvettes and the aggregation was monitored for 1 minute. All compounds are tested in duplicate. Results are calculated as follows:
Percent of control=[(maximal OD minus initial OD of compound) divided by (maximal OD minus initial OD of control saline)]×100. The % inhibition=100-(percent of control).

SMILES	pIC50
N=C(N)c1ccc(CCCCC(=O)NC(CC(=O)O)c2ccccc2O)cc1 (racemic) [(±)-β-[[5-[4-(aminoiminomethyl)phenyl]-1-oxopentyl]amino-2-hydroxybenzenepropanoic acid]	5.70
COc1ccc(C(CC(=O)O)NC(=O)CCCCc2ccc(C(=N)N)cc2)c(O)c1 (racemic) [(±)-β-[[5-[4-(aminoiminomethyl)phenyl]-1-oxopentyl]amino]-2-hydroxy-4-methoxybenzenepropanoic acid]	6.16
N=C(N)c1ccc(CCCCC(=O)NC(CC(=O)O)c2cccs2)cc1 (racemic) [(±)-β-[[5-[4-(aminoiminomethyl)phenyl]-1-oxopentyl]amino]-2-thiophenepropanoic acid]	5.77
C[n+]1cccc(C(CC(=O)O)NC(=O)CCCCc2ccc(C(=N)N)cc2)c1 (centres unmarked) [3-[1-[[5-[4-(aminoiminomethyl)phenyl]-1-oxopentyl]amino]-2-carboxyethyl]-1-methylpyridinium chloride]	5.24
C=CC(CC(=O)O)NC(=O)CCCCc1ccc(C(=N)N)cc1 (centres unmarked) [3-[[5-[4-(aminoiminomethyl)phenyl]-1-oxopentyl]amino]-4-pentenoic acid]	5.04
CC(CCC(=O)NC(C)CC(=O)O)Cc1ccc(C(=N)N)cc1 (centres unmarked) [3-[[5-[4-(aminoiminomethyl)phenyl]-4-methyl-1-oxopentyl]amino]butanoic acid]	5.90
C[C@H](CC(=O)O)NC(=O)CCCCc1ccc(C(=N)N)cc1 [3R-[[5-[4-(aminoiminomethyl)phenyl]-1-oxopentyl]amino]butanoic acid]	5.89
N=C(N)c1ccc(CCCCC(=O)NC(CC(=O)O)c2ccc(C(=N)N)cc2)cc1 (stereo not drawn) [4-(aminoiminomethyl)-β-[[5-[4-(aminoiminomethyl)phenyl]-1-oxopentyl]amino]benzenepropanoic acid]	5.74
N=C(N)c1ccc(CCCCC(=O)NCCC(=O)O)cc1 [N-[5-[4 (aminoiminomethyl)phenyl]-1-oxopentyl]-β-alanine]	5.22
N=C(N)c1ccc(CCCCC(=O)NCC(O)C(=O)O)cc1 (stereo not drawn) [N-[5-[4-(Aminoiminomethyl)phenyl]-1-oxopentyl]-2-hydroxy-β-alanine]	5.00
N=C(N)c1ccc(CCCCC(=O)NCCC(=O)OCc2ccccc2)cc1 [N-[5-[4-(Aminoiminomethyl)phenyl]-1-oxopentyl]-β-alanine, phenylmethyl ester]	5.30
N=C(N)c1ccc(CCCCC(=O)NCC(F)C(=O)O)cc1 (stereo not drawn) [N-[5-[4-(Aminoiminomethyl]phenyl]-1-oxopentyl]-2-fluoro-β-alanine]	4.52
N=C(N)c1ccc(CCCCC(=O)NC(CC(=O)O)Cc2ccccc2)cc1 (stereo not drawn) [β-[5-[4-(Aminoiminomethyl)phenyl]-1-oxopentyl]amino]benzenebutanoic acid]	5.52
N=C(N)c1ccc(CCCCC(=O)NC(CC(=O)O)c2ccc(-c3ccccc3)cc2)cc1 (stereo not drawn) [β-[[5-[4-(Aminoiminomethyl)phenyl)-1-oxopentyl]amino][1,1'-biphenyl]-4-propanoic acid, acetate salt]	5.64
N=C(N)c1ccc(C#CCCC(=O)NC(CC(=O)O)c2ccccc2)cc1 (stereo not drawn) [β-[[5-[4-(aminoiminomethyl)phenyl]-1-oxo-4-pentynyl]amino]benzenepropanoic acid]	5.74
N=C(N)c1ccc(CCCCC(=O)NC(CC(=O)O)c2ccc3c(c2)OCO3)cc1 (stereo not drawn) [β-[[5-[4-(aminoiminomethyl)phenyl]-1-oxopentyl]amino]-1,3-benzodioxole-5-propanoic acid]	6.55
COc1ccc(C(CC(=O)O)NC(=O)CCCCc2ccc(C(=N)N)cc2)c(OC)c1 (stereo not drawn) [β-[[5-[4-(aminoiminomethyl)phenyl]-1-oxopentyl]amino]-2,4-dimethoxybenzenepropanoic acid]	5.60
COc1ccc(OC)c(C(CC(=O)O)NC(=O)CCCCc2ccc(C(=N)N)cc2)c1 (stereo not drawn) [β-[[5-[4-(aminoiminomethyl)phenyl]-1-oxopentyl]amino]-2,5-dimethoxybenzenepropanoic acid]	5.05
N=C(N)c1ccc(CCCCC(=O)NC(CC(=O)O)c2ccccc2F)cc1 (stereo not drawn) [β-[[5-[4-(aminoiminomethyl)phenyl]-1-oxopentyl]amino]-2-fluorobenzenepropanoic acid]	5.28
N=C(N)c1ccc(CCCCC(=O)NC(CC(=O)O)c2ccccn2)cc1 (stereo not drawn) [β-[[5-[4-(aminoiminomethyl)phenyl]-1-oxopentyl]amino]-2-pyridinepropanoic acid]	5.64
N=C(N)c1ccc(CCCCC(=O)NC(CC(=O)O)c2ccc(Cl)c(Cl)c2)cc1 (stereo not drawn) [β-[[5-[4-(aminoiminomethyl)phenyl]-1-oxopentyl]amino]-3,4-dichlorobenzenepropanoic acid]	5.17

SMILES	pIC50
COc1ccc(C(CC(=O)O)NC(=O)CCCCc2ccc(C(=N)N)cc2)cc1OC (stereo not drawn) [β-[[5-[4-(aminoiminomethyl)phenyl]-1-oxopentyl]amino]-3,4-dimethoxybenzenepropanoic acid]	6.28
N=C(N)c1ccc(CCCCC(=O)NC(CC(=O)O)c2cc(Cl)cc(Cl)c2)cc1 (stereo not drawn) [β-[[5-[4-(aminoiminomethyl)phenyl]-1-oxopentyl]amino]-3,5-dichlorobenzenepropanoic acid]	5.22
COc1cc(OC)cc(C(CC(=O)O)NC(=O)CCCCc2ccc(C(=N)N)cc2)c1 (stereo not drawn) [β-[[5-[4-(aminoiminomethyl)phenyl]-1-oxopentyl]amino]-3,5-dimethoxybenzenepropanoic acid]	6.48
N=C(N)c1ccc(CCCCC(=O)NC(CC(=O)O)c2cccc(C(F)(F)F)c2)cc1 (stereo not drawn) [β-[[5-[4-(aminoiminomethyl)phenyl]-1-oxopentyl]amino]-3-(trifluoromethyl)benzenepropanoic acid]	5.15
N#Cc1cccc(C(CC(=O)O)NC(=O)CCCCc2ccc(C(=N)N)cc2)c1 (stereo not drawn) [β-[[5-[4-(aminoiminomethyl)phenyl]-1-oxopentyl]amino]-3-cyanobenzenepropanoic acid]	5.85
N=C(N)c1ccc(CCCCC(=O)NC(CC(=O)O)C2CC=CCC2)cc1 (stereo not drawn) [β-[[5-[4-(aminoiminomethyl)phenyl]-1-oxopentyl]amino]-3-cyclohexene-1-propanoic acid]	5.40
N=C(N)c1ccc(CCCCC(=O)NC(CC(=O)O)c2cccc(F)c2)cc1 (stereo not drawn) [β-[[5-[4-(aminoiminomethyl)phenyl]-1-oxopentyl]amino]-3-fluorobenzenepropanoic acid]	5.89
COc1cccc(C(CC(=O)O)NC(=O)CCCCc2ccc(C(=N)N)cc2)c1 (stereo not drawn) [β-[[5-[4-(aminoiminomethyl)phenyl]-1-oxopentyl]amino]-3-methoxybenzenepropanoic acid]	5.89
N=C(N)c1ccc(CCCCC(=O)NC(CC(=O)O)c2cccc(Oc3ccccc3)c2)cc1 (stereo not drawn) [β-[[5-[4-(aminoiminomethyl)phenyl]-1-oxopentyl]amino]-3-phenoxybenzenepropanoic acid]	5.29
N=C(N)c1ccc(CCCCC(=O)NC(CC(=O)O)c2cccnc2)cc1 (stereo not drawn) [β-[[5-[4-(aminoiminomethyl)phenyl]-1-oxopentyl]amino]-3-pyridinepropanoic acid]	6.92
N=C(N)c1ccc(CCCCC(=O)NC(CC(=O)O)c2ccc(OCc3ccccc3)cc2)cc1 (stereo not drawn) [β-[[5-[4-(aminoiminomethyl)phenyl]-1-oxopentyl]amino]-4-(phenylmethoxy)benzenepropanoic acid]	5.92
N=C(N)c1ccc(CCCCC(=O)NC(CC(=O)O)c2ccc(C(F)(F)F)cc2)cc1 (stereo not drawn) [β-[[5-[4-(aminoiminomethyl)phenyl]-1-oxopentyl]amino]-4-(trifluoromethyl)benzenepropanoic acid]	5.37
N=C(N)c1ccc(CCCCC(=O)NC(CC(=O)O)c2ccc(Br)cc2)cc1 (stereo not drawn) [β-[[5-[4-(aminoiminomethyl)phenyl]-1-oxopentyl]amino]-4-bromobenzenepropanoic acid]	5.51
N=C(N)c1ccc(CCCCC(=O)NC(CC(=O)O)c2ccc(C(=O)O)cc2)cc1 (stereo not drawn) [β-[[5-[4-(aminoiminomethyl)phenyl]-1-oxopentyl]amino]-4-carboxybenzenepropanoic acid]	5.89
N=C(N)c1ccc(CCCCC(=O)NC(CC(=O)O)c2ccc(Cl)cc2)cc1 (stereo not drawn) [β-[[5-[4-(aminoiminomethyl)phenyl]-1-oxopentyl]amino]-4-chlorobenzenepropanoic acid]	5.55
N#Cc1ccc(C(CC(=O)O)NC(=O)CCCCc2ccc(C(=N)N)cc2)cc1 (stereo not drawn) [β-[[5-[4-(aminoiminomethyl)phenyl]-1-oxopentyl]amino]-4-cyanobenzenepropanoic acid]	5.89
CCOc1ccc(C(CC(=O)O)NC(=O)CCCCc2ccc(C(=N)N)cc2)cc1 (stereo not drawn) [β-[[5-[4-(aminoiminomethyl)phenyl]-1-oxopentyl]amino]-4-ethoxybenzenepropanoic acid]	6.40
N=C(N)c1ccc(CCCCC(=O)NC(CC(=O)O)c2ccc(F)cc2)cc1 (stereo not drawn) [β-[[5-[4-(aminoiminomethyl)phenyl]-1-oxopentyl]amino]-4-fluorobenzenepropanoic acid]	5.52
N=C(N)c1ccc(CCCCC(=O)NC(CC(=O)O)c2ccc(O)cc2)cc1 (stereo not drawn) [β-[[5-[4-(aminoiminomethyl)phenyl]-1-oxopentyl]amino]-4-hydroxybenzenepropanoic acid]	6.10
N=C(N)c1ccc(CCCCC(=O)NC(CC(=O)O)c2ccc(Oc3ccccc3)cc2)cc1 (stereo not drawn) [β-[[5-[4-(aminoiminomethyl)phenyl]-1-oxopentyl]amino]-4-phenoxybenzenepropanoic acid]	5.70
